According to patent US20230013669A1, “Antibacterial Treatment Using a Cannabinoid and an Active Agent” (priority 2019, published 2023):
“And” between values parts separate entries of the source, which are not always exact repeats. Identical values can stand only once. Like-named read-outs stand apart in the source and are kept apart here.

Tested on: Acinetobacter baumannii ATCC 19606 (GN_034)
Experiment: Synergy of cannabidiol with cell-wall disrupting agent (CBD MIC in combination, FICI)
Type: cell-based
Settings: for MIC: Acinetobacter baumannii
Procedure: The compounds were stored short term at 4° C.
Analysis was performed using Microsoft Excel.

C=C(C)C1CCC(C)=CC1c1c(O)cc(CCCCC)cc1O (centres unmarked) [Cannabidiol, 2-[3-methyl-6-(1-methylethenyl)-2-cyclohexen-1-yl]-5-pentyl-1,3-benzenediol]
FICI range (Acinetobacter baumannii ATCC 19606, CBD with FADDI-287, MIC table (Table 95)): 0.25-8 | FICI range (Acinetobacter baumannii ATCC 19606, CBD with FADDI-287, Synergy table (Table 97)): 0.25-8^ | FICI range (Acinetobacter baumannii ATCC 19606, CBD with MCC_8980, MIC table (Table 99)): 0.06-1.02 | FICI range (Acinetobacter baumannii ATCC 19606, CBD with MCC_8980, Synergy table (Table 101), listed as CBD): 0.06-0.25 and 0.06-0.26 | FICI range (Acinetobacter baumannii ATCC 19606, CBD with Spero SPR206, Synergy table, listed as CBD): 0.25-0.5 and 0.25 | CBD MIC with MCC_8980 (Acinetobacter baumannii ATCC 19606, MCC_8980 at 8 μg/mL, listed as CBD): 4 µg/mL | CBD MIC with MCC_8980 (Acinetobacter baumannii ATCC 19606, MCC_8980 at 16 μg/mL, listed as CBD): 2 µg/mL | FICI (Acinetobacter baumannii ATCC 19606, cannabidiol with FADDI-287 at 0.25 μg/mL, calculated using MIC of 256 μg/mL for cannabidiol): 0.5001 | FICI (Acinetobacter baumannii ATCC 19606, cannabidiol with FADDI-287 at 0.5 μg/mL, calculated using MIC of 256 μg/mL for cannabidiol): 1 | FICI (Acinetobacter baumannii ATCC 19606, cannabidiol with FADDI-287 at 1 μg/mL, calculated using MIC of 256 μg/mL for cannabidiol): 2 | FICI (Acinetobacter baumannii ATCC 19606, cannabidiol with FADDI-287 at 2 μg/mL, calculated using MIC of 256 μg/mL for cannabidiol): 4 | FICI (Acinetobacter baumannii ATCC 19606, cannabidiol with FADDI-287 at 4 μg/mL, calculated using MIC of 256 μg/mL for cannabidiol): 8 | FICI (Acinetobacter baumannii ATCC 19606, cannabidiol with MCC_8980 at 1 μg/mL, calculated using MIC of 256 μg/mL for cannabidiol): 1.016 | FICI (Acinetobacter baumannii ATCC 19606, cannabidiol with MCC_8980 at 2 μg/mL, calculated using MIC of 256 μg/mL for cannabidiol): 0.0625 | FICI (Acinetobacter baumannii ATCC 19606, cannabidiol with MCC_8980 at 4 μg/mL, calculated using MIC of 256 μg/mL for cannabidiol): 0.09375 | FICI (Acinetobacter baumannii ATCC 19606, cannabidiol with MCC_8980 at 8 μg/mL, calculated using MIC of 256 μg/mL for cannabidiol): 0.1328 and 0.1406 | FICI (Acinetobacter baumannii ATCC 19606, cannabidiol with MCC_8980 at 16 μg/mL, calculated using MIC of 256 μg/mL for cannabidiol): 0.2578 | FICI (Acinetobacter baumannii ATCC 19606, cannabidiol with SPR741 at 1 μg/mL, calculated using MIC of 256 μg/mL for cannabidiol): 1.016 | FICI (Acinetobacter baumannii ATCC 19606, cannabidiol with SPR741 at 2 μg/mL, calculated using MIC of 256 μg/mL for cannabidiol): 1.031 | FICI (Acinetobacter baumannii ATCC 19606, cannabidiol with SPR741 at 2 μg/mL, calculated using MIC of 256 μg/mL for cannabidiol, listed as cannabidiol): 1.016 | MIC (ATCC19606, Acinetobacter baumannii ATCC 19606, FADDI-287 at 0.25 μg/mL, read-out: CBD MIC with FADDI-287): 0.015 µg/mL | MIC (ATCC19606, Acinetobacter baumannii ATCC 19606, FADDI-287 at 0.5 μg/mL, read-out: CBD MIC with FADDI-287): 0.001 µg/mL | MIC (ATCC19606, Acinetobacter baumannii ATCC 19606, FADDI-287 at 1 μg/mL, read-out: CBD MIC with FADDI-287): 0.001 µg/mL | MIC (ATCC19606, Acinetobacter baumannii ATCC 19606, FADDI-287 at 2 μg/mL, read-out: CBD MIC with FADDI-287): 0.001 µg/mL | MIC (ATCC19606, Acinetobacter baumannii ATCC 19606, FADDI-287 at 4 μg/mL, read-out: CBD MIC with FADDI-287): 0.001 µg/mL | MIC (ATCC19606, Acinetobacter baumannii ATCC 19606, MCC_8980 at 2 μg/mL, read-out: CBD MIC with MCC_8980): 8 µg/mL | MIC (ATCC19606, Acinetobacter baumannii ATCC 19606, MCC_8980 at 4 μg/mL, read-out: CBD MIC with MCC_8980): 8 µg/mL | MIC (ATCC19606, Acinetobacter baumannii ATCC 19606, MCC_8980 at 8 μg/mL, read-out: CBD MIC with MCC_8980): 2 µg/mL | MIC (ATCC19606, Acinetobacter baumannii ATCC 19606, MCC_8980 at 16 μg/mL, read-out: CBD MIC with MCC_8980): 1 µg/mL | MIC (ATCC19606, Acinetobacter baumannii ATCC 19606, Spero SPR206 at 2 μg/mL, read-out: CBD MIC with Spero SPR206): 0.001 µg/mL | MIC (ATCC19606, Acinetobacter baumannii ATCC 19606, Spero SPR206 at 4 μg/mL, read-out: CBD MIC with Spero SPR206): 0.001 µg/mL | MIC (ATCC19606, MCC_6442 at 1 μg/mL, Acinetobacter baumannii ATCC 19606, read-out: CBD MIC with MCC_6442): 16 µg/mL | MIC (ATCC19606, MCC_6442 at 2 μg/mL, Acinetobacter baumannii ATCC 19606, read-out: CBD MIC with MCC_6442): 1 µg/mL | MIC (ATCC19606, MCC_6442 at 4 μg/mL, Acinetobacter baumannii ATCC 19606, read-out: CBD MIC with MCC_6442): 0.5 µg/mL | MIC (ATCC19606, Octapeptin C4 at 2 μg/mL, read-out: CBD MIC with Octapeptin C4): 8 µg/mL | MIC (ATCC19606, Octapeptin C4 at 4 μg/mL, read-out: CBD MIC with Octapeptin C4): 2 µg/mL | MIC (ATCC19606, Spero SPR206 at 0.25 μg/mL, 1st of 3 experiments, read-out: CBD MIC with Spero SPR206): 0.001 µg/mL | MIC (ATCC19606, Spero SPR206 at 0.25 μg/mL, 3rd of 3 experiments, read-out: CBD MIC with Spero SPR206): > 256 µg/mL | MIC (ATCC19606, Spero SPR206 at 0.5 μg/mL, 1st of 3 experiments, read-out: CBD MIC with Spero SPR206): 0.001 µg/mL | MIC (ATCC19606, Spero SPR206 at 0.5 μg/mL, 3rd of 3 experiments, read-out: CBD MIC with Spero SPR206): > 256 µg/mL | MIC (ATCC19606, Spero SPR206 at 1 μg/mL, 1st of 3 experiments, read-out: CBD MIC with Spero SPR206): 0.001 µg/mL | MIC (ATCC19606, Spero SPR206 at 1 μg/mL, 3rd of 3 experiments, read-out: CBD MIC with Spero SPR206): 1 µg/mL | MIC (ATCC19606, Spero SPR206 at 2 μg/mL, 1st of 3 experiments, read-out: CBD MIC with Spero SPR206): 0.001 µg/mL | MIC (ATCC19606, Spero SPR206 at 2 μg/mL, 3rd of 3 experiments, read-out: CBD MIC with Spero SPR206): 0.001 µg/mL | MIC (ATCC19606, Spero SPR206 at 4 μg/mL, 1st of 3 experiments, read-out: CBD MIC with Spero SPR206): 0.001 µg/mL | MIC (ATCC19606, Spero SPR206 at 4 μg/mL, 3rd of 3 experiments, read-out: CBD MIC with Spero SPR206): 0.001 µg/mL | CBD MIC with Aztreonam (Aztreonam at 4 μg/mL): 32 µg/mL | CBD MIC with Aztreonam (Aztreonam at 8 μg/mL): 32 µg/mL | CBD MIC with Aztreonam (Aztreonam at 16 μg/mL): 0.001 µg/mL | FICI (CBD with Aztreonam at 0.5 μg/mL, CBD MIC taken as 256 μg/mL): 1.016 | FICI (CBD with Aztreonam at 1 μg/mL, CBD MIC taken as 256 μg/mL): 1.031 | FICI (CBD with Aztreonam at 2 μg/mL, CBD MIC taken as 256 μg/mL): 1.0625 | FICI (CBD with Aztreonam at 4 μg/mL, CBD MIC taken as 256 μg/mL): 0.25
